Read-outs that look alike come from different tables or passages of the source.

One data set concerns rat kidney slices. The data set is described as follows: uptake into rat kidney slices. The format is in vitro ADME, Sprague-Dawley (SD) rats. The note with it: SD rat kidney slices incubated with pooled EHBR plasma for 2 h; p < 0.01. From the text:
(§1) Uptake of Compound 4 by Rat Kidney Slices and Cells Expressing OAT1 and 3
(§2) For the uptake study of 4 into rat kidney slices, we used the samples obtained in our previous study ([Ishiuchi et al., 2019]). For the uptake study of 4 into the cells transiently expressing OAT1 and OAT3, we used the same protocol as in our previous study ([Makino et al., 2012]). cDNAs encoding human OAT1 and OAT3 inserted into pGH19 were generously supplied by Prof. Mitsuru Sugawara (Hokkaido University, Sapporo, Japan), and then subcloned into a pCI-neo mammalian expression vector (Promega, Madison, WI, United States). We used the same pooled plasma of male EHBRs orally treated with GA for 12 h used in our previous study ([Ishiuchi et al., 2019]).
(§3) FIGURE 2 Inhibitory effects of compound 4 on type-2 11β-hydroxysteroid dehydrogenase (11β-HSD2) using rat kidney microsome (A), and the uptake of 4 into rat kidney slices (B) or into HEK293 cells transfected with organic anion transporter (OAT) 1 (C) or OAT3 (D). […] Then, the amount of [^3H] cortisol was measured. […] Concentrations of 4 in kidney slice homogenates were measured using liquid chromatography-tandem mass spectrometry (LC-MS/MS). **p < 0.01 vs 4°C group using Student’s t-test (C) Male EHBRs were orally treated with GA (200 mg/kg) and their plasma samples were collected […] after treatment. […] Then, concentrations of 4 in cells were measured using LC-MS/MS. […]

In the next data set the target is T1, human OAT3 (Homo sapiens, UniProt Q8TCC7).
T1 construct: expressed in transfected cells; host or cells: HEK293 cells, pCI-neo vector
T1 sequence (Q8TCC7 1-542): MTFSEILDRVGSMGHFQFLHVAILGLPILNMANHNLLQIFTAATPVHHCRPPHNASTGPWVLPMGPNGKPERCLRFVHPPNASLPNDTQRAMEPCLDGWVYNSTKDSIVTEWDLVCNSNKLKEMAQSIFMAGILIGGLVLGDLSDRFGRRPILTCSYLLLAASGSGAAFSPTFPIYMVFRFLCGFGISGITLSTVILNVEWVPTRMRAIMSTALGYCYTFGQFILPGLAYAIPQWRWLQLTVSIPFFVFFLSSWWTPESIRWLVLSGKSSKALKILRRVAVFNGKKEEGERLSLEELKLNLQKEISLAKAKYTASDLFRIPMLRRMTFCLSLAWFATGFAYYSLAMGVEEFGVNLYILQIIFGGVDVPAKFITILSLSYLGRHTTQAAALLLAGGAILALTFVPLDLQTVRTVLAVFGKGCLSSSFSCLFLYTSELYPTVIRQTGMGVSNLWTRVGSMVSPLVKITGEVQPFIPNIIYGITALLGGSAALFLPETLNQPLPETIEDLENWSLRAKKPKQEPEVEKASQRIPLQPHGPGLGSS
The data set is described as follows: uptake into HEK293 cells transfected with OAT3. In kind it is in vitro ADME. Particulars: HEK293, EHBR plasma, 37°C, 15 min.
Description: as §1, §2, §3

A short description of data set [1]: relationship of serum concentration of compound 4 with laboratory markers and symptoms of pseudohyperaldosteronism. In kind it is in vivo, human. From the text: Evaluation of the Pathological Relationship Between Compound 4 and Pseudohyperaldosteronism Pathology
We recorded the following available clinical symptoms and laboratory data when blood samples were drawing from patients: age, sex, complications, concomitant medications, daily liquorice dose, duration of administration of liquorice-containing herbal preparations, symptoms (blood pressure and pedal oedema), and laboratory test values, namely: total protein, albumin, total and direct bilirubin, aspartate amino transferase, alanine amino transferase, blood urea nitrogen, creatinine, sodium, potassium, chloride, calcium, magnesium, prothrombin time, plasma renin activity or activated renin concentration, and plasma aldosterone concentration (blood test data), and urine concentrations of potassium and creatinine (urinalysis data). Samples were processed according to the individual institutional protocols, and all data were measured at each institution.
FIGURE 3 Concentration of 4 in human serum samples and three or laboratory markers (A) Strong positive correlation was identified between serum concentrations of 3 and 4.

A short description of data set [2]: pharmacokinetics of GA metabolites in EHBRs orally treated with GA. The format is in vivo, Eisai hyperbilirubinuria rats (EHBRs). Particulars: Eisai hyperbilirubinuria rat (EHBR), plasma, oral GA 200 mg/kg, 24 h after treatment, read-out: concentration in plasma sample.

As to `CC1(C)[C@@H](OS(=O)(=O)O)CC[C@]2(C)[C@H]3C(=O)C=C4[C@@H]5C[C@@](C)(C(=O)O[C@@H]6O[C@H](C(=O)O)[C@@H](O)[C@H](O)[C@H]6O)CC[C@]5(C)CC[C@@]4(C)[C@]3(C)CC[C@@H]12` [Compound 4, 18β-glycyrrhetyl-3-O-sulfate-30-O-glucuronide], the “uptake by kidney slices, 37°C vs 4°C” value in the data set with rat kidney slices is “significantly higher at 37 °C”. For the same molecule, the “uptake into cells expressing OAT3 vs mock cells” value on human OAT3 is “significantly higher”. The “relationship with clinical symptoms” value in data set [1] (blood pressure, oedema) is given as “not significant”. For the same molecule, in data set [1] (human serum samples), the “correlation of serum concentration with plasma renin activity and aldosterone concentration” value is “negative correlations”; the “serum potassium concentration in participants with higher serum concentrations” value is reported as “tended to be lower”. Besides, the concentration at 24 h in data set [2] (female EHBRs) was 115 µM. For the same molecule, the concentration at 24 h in data set [2] (male EHBRs) amounted to 189 µM.

(Values after article PMC8165744, “Identification of an Alternative Glycyrrhizin Metabolite Causing Liquorice-Induced Pseudohyperaldosteronism and the Development of ELISA System to Detect the Predictive Biomarker” (Frontiers in Pharmacology, 2021).)
